Experimental data taken from PubChem BioAssay AID192 (DTP/NCI, 2004).
Values joined by “and” are separate entries in the source; they are usually repeats but may differ in a detail not shown here. Equal values may be shown once. Inconclusive results and toxic doses are left out. Rule for the calls: active = survival T/C of 150% or more; inactive = T/C below 125% in these data.

Tested on: BDF1 mice, B16 melanoma ip, median survival T/C
Test: NCI In Vivo Anticancer Drug Screen. Data for tumor model B16 Melanoma (intraperitoneal) in B6D2F1 (BDF1) mice
Conditions: endpoint: median survival time, higher = longer survival
Method in brief: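 Antitumor activity is assessed in mice bearing a transplanted tumor, with survival or tumor size compared against vehicle-dosed controls and expressed as T/C.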

[1] = dose: 3.12 mg/kg/injection, schedule: Q01DX009 (ip), vehicle: saline
[2] = dose: 6.25 mg/kg/injection, schedule: Q01DX009 (ip), vehicle: saline
[3] = dose: 12.5 mg/kg/injection, schedule: Q01DX009 (ip), vehicle: Klucel (hydroxypropylcellulose) (HPC)
[4] = dose: 100.0 mg/kg/injection, schedule: Q01DX009 (ip), vehicle: saline
[5] = dose: 200.0 mg/kg/injection, schedule: Q01DX009 (ip), vehicle: saline
[6] = dose: 400.0 mg/kg/injection, schedule: Q01DX009 (ip), vehicle: saline
[7] = dose: 100.0 mg/kg/injection, schedule: Q01DX009 (ip), vehicle: Klucel (hydroxypropylcellulose) (HPC)
[8] = dose: 200.0 mg/kg/injection, schedule: Q01DX009 (ip), vehicle: Klucel (hydroxypropylcellulose) (HPC)
[9] = dose: 400.0 mg/kg/injection, schedule: Q01DX009 (ip), vehicle: Klucel (hydroxypropylcellulose) (HPC)
[10] = dose: 12.5 mg/kg/injection, schedule: Q01DX009 (ip), vehicle: saline
[11] = dose: 25.0 mg/kg/injection, schedule: Q01DX009 (ip), vehicle: saline
[12] = dose: 50.0 mg/kg/injection, schedule: Q01DX009 (ip), vehicle: saline
[13] = dose: 6.25 mg/kg/injection, schedule: Q01DX009 (ip), vehicle: saline with Tween-80
[14] = dose: 12.5 mg/kg/injection, schedule: Q01DX009 (ip), vehicle: saline with Tween-80
[15] = dose: 25.0 mg/kg/injection, schedule: Q01DX009 (ip), vehicle: saline with Tween-80
[16] = dose: 50.0 mg/kg/injection, schedule: Q01DX009 (ip), vehicle: saline with Tween-80
[17] = dose: 100.0 mg/kg/injection, schedule: Q01DX009 (ip), vehicle: saline with Tween-80
[18] = dose: 200.0 mg/kg/injection, schedule: Q01DX009 (ip), vehicle: saline with Tween-80

Measured: T/C

COc1ccc(/C=N/n2c3ccccc3c3ccccc32)cc1OCCCN(C)C
inactive: dose: 0.39 mg/kg/injection, schedule: Q01DX009 (ip), vehicle: saline 120 % of control | dose: 0.78 mg/kg/injection, schedule: Q01DX009 (ip), vehicle: saline 102 % of control | dose: 1.56 mg/kg/injection, schedule: Q01DX009 (ip), vehicle: saline 112 % of control | [1] 105 % of control | [2] 105 % of control | [3] 97 % of control

CC(=O)CC(=O)NCCN1CCN=C1C
inactive: [4] 109 % of control | [5] 116 % of control | [6] 110 % of control

COc1ccc(C2NC(=O)c3ccccc3N2)c(OC)c1OC (stereo not given)
inactive: [7] 103 % of control | [8] 112 % of control | [9] 109 % of control

CC(=O)OCC1OC(n2cnc3c(=S)nc(N)[nH]c32)C(OC(C)=O)C1OC(C)=O (stereo not given)
inactive: [2] 118 % of control | [10] 105 % of control | [11] 101 % of control

NC(CCC(=O)NC(CS)C(=O)NCC(=O)O)C(=O)O (stereo not given)
inactive: [12] 124 % of control | [4] 98 % of control | [5] 98 % of control | [6] 100 % of control

NCCCN=c1ccc2c3c1c(O)c1c(O)ccc(=O)c1c3[nH]n2CCNCCO
active: dose: 0.5 mg/kg/injection, schedule: Q01DX009 (ip), vehicle: water 158 % of control and 197 % of control | dose: 1.0 mg/kg/injection, schedule: Q01DX009 (ip), vehicle: water 187 % of control and 227 % of control | dose: 2.0 mg/kg/injection, schedule: Q01DX009 (ip), vehicle: water 216 % of control and 242 % of control | dose: 4.0 mg/kg/injection, schedule: Q01DX009 (ip), vehicle: water 216 % of control and 244 % of control | dose: 8.0 mg/kg/injection, schedule: Q01DX009 (ip), vehicle: water 216 % of control and 338 % of control | dose: 16.0 mg/kg/injection, schedule: Q01DX009 (ip), vehicle: water 158 % of control

CCCCCCCCCC(=O)CCCCCC
inactive: [7] 90 % of control | [8] 89 % of control

CN(C)C1CCN(Cc2ccccc2)CC1
inactive: dose: 50.0 mg/kg/injection, schedule: Q04DX003 (ip), vehicle: saline 100 % of control | dose: 100.0 mg/kg/injection, schedule: Q04DX003 (ip), vehicle: saline 90 % of control | dose: 200.0 mg/kg/injection, schedule: Q04DX003 (ip), vehicle: saline 93 % of control

CC1NCCNCCNCCNC(C)c2cccc1n2 (stereo not given)
inactive: [2] 107 % of control | [10] 98 % of control | [11] 102 % of control

O=C(CC(=O)CC(O)(C(F)(F)F)C(F)(F)F)CC(O)(C(F)(F)F)C(F)(F)F
inactive: dose: 0.05 mg/kg/injection, schedule: Q01DX009 (ip), vehicle: saline 93 % of control | dose: 0.1 mg/kg/injection, schedule: Q01DX009 (ip), vehicle: saline 95 % of control | dose: 0.2 mg/kg/injection, schedule: Q01DX009 (ip), vehicle: saline 95 % of control | dose: 0.63 mg/kg/injection, schedule: Q04DX003 (ip), vehicle: saline 116 % of control | dose: 1.25 mg/kg/injection, schedule: Q04DX003 (ip), vehicle: saline 111 % of control | dose: 2.5 mg/kg/injection, schedule: Q04DX003 (ip), vehicle: saline 105 % of control | dose: 125.0 micrograms/kg/injection, schedule: Q01DX009 (ip), vehicle: saline with Tween-80 97 % of control

N#CC(=C1C=CC(=NO)C=C1)c1ccc(Cl)cc1
inactive: [13] 88 % of control | [14] 95 % of control | [15] 87 % of control | [16] 86 % of control

COc1ccc(Cl)cc1NC(=O)Nc1ccc(Cl)c(Cl)c1
inactive: dose: 18.75 mg/kg/injection, schedule: Q01DX009 (ip), vehicle: Klucel (hydroxypropylcellulose) (HPC) 96 % of control | dose: 37.5 mg/kg/injection, schedule: Q01DX009 (ip), vehicle: Klucel (hydroxypropylcellulose) (HPC) 95 % of control | dose: 75.0 mg/kg/injection, schedule: Q01DX009 (ip), vehicle: Klucel (hydroxypropylcellulose) (HPC) 90 % of control

[O-][n+]1c(CCl)nc2cccc3c2c1-c1ccccc1-3
inactive: [15] 101 % of control | [16] 96 % of control | [17] 90 % of control

OC(c1ccccc1)C1(c2ccccc2)OCCO1 (stereo not given)
inactive: [17] 100 % of control | [18] 95 % of control | dose: 400.0 mg/kg/injection, schedule: Q01DX009 (ip), vehicle: saline with Tween-80 90 % of control

CN(C)CC(CN1c2ccccc2Sc2ccccc21)N(C)C (stereo not given)
inactive: [1] 102 % of control | [2] 107 % of control | [10] 107 % of control | [11] 120 % of control | [12] 105 % of control

CNc1ccccc1C(N)=O
inactive: [7] 94 % of control | [8] 100 % of control

O=C(Nc1cccc(C(F)(F)F)c1)c1ccc(C(=O)Nc2cccc(C(F)(F)F)c2)cc1
active: [15] 205 % of control | [16] 184 % of control
inactive: [17] 90 % of control

COc1ccc([C@@H]2c3cc4c(cc3C[C@H]3COC(=O)[C@@H]32)OCO4)cc1OC
inactive: dose: 11.0 mg/kg/injection, schedule: Q01DX009 (ip), vehicle: saline with Tween-80 124 % of control | dose: 22.0 mg/kg/injection, schedule: Q01DX009 (ip), vehicle: saline with Tween-80 111 % of control | dose: 33.0 mg/kg/injection, schedule: Q01DX009 (ip), vehicle: saline with Tween-80 124 % of control | dose: 67.0 mg/kg/injection, schedule: Q01DX009 (ip), vehicle: saline with Tween-80 113 % of control

CCOc1ccc2c(ccc(/C=C\c3cc(C)c4cccnc4c3O)[n+]2C)c1
inactive: [13] 102 % of control | [14] 101 % of control

O=[N+]([O-])c1cc(C(F)(F)F)ccc1F
inactive: [3] 101 % of control | dose: 25.0 mg/kg/injection, schedule: Q01DX009 (ip), vehicle: Klucel (hydroxypropylcellulose) (HPC) 109 % of control | dose: 50.0 mg/kg/injection, schedule: Q01DX009 (ip), vehicle: Klucel (hydroxypropylcellulose) (HPC) 109 % of control | [7] 108 % of control

COc1ccccc1NC(=O)Nc1cccc(C(C)=O)c1
inactive: [17] 94 % of control | [18] 92 % of control

Nc1ncn(C2OC(CO)C(O)C2O)c(=O)n1 (stereo not given)
inactive: dose: 0.25 mg/kg/injection, schedule: Q01DX009 (ip), vehicle: suspension in saline 90 % of control | dose: 0.5 mg/kg/injection, schedule: Q01DX009 (ip), vehicle: suspension in saline 112 % of control | dose: 0.75 mg/kg/injection, schedule: Q01DX009 (ip), vehicle: saline with Tween-80 118 % of control | dose: 1.0 mg/kg/injection, schedule: Q01DX009 (ip), vehicle: suspension in saline 91 % of control | dose: 1.5 mg/kg/injection, schedule: Q01DX009 (ip), vehicle: saline with Tween-80 124 % of control | dose: 2.0 mg/kg/injection, schedule: Q01DX009 (ip), vehicle: suspension in saline 92 % of control

CCN(C(=O)COc1ccc(Cl)cc1)c1ccccc1C
inactive: [7] 96 % of control | [8] 106 % of control | [9] 96 % of control

O=C1CSC(=S)N1c1ccco1
inactive: [16] 92 % of control | [17] 90 % of control | [18] 87 % of control

O=C(/C=C/c1ccccc1)CC(O)(C(F)(F)F)C(F)(F)F
inactive: dose: 100.0 mg/kg/injection, schedule: Q04DX003 (sc), vehicle: olive oil, sesame oil, peanut oil 90 % of control | dose: 200.0 mg/kg/injection, schedule: Q04DX003 (sc), vehicle: olive oil, sesame oil, peanut oil 95 % of control | dose: 400.0 mg/kg/injection, schedule: Q04DX003 (sc), vehicle: olive oil, sesame oil, peanut oil 90 % of control

CCOc1ccc(-c2nc3ccc(-c4nc5ccc(N6CCN(C)CC6)cc5[nH]4)cc3[nH]2)cc1
inactive: [1] 106 % of control | [2] 113 % of control | [10] 112 % of control

COc1cccc2c1C(=O)c1c(O)c3c(c(O)c1C2=O)CC(O)(C(C)=O)CC3OC1CC(NC(=O)C(CCCCN)NC(=O)C2CCCN2)C(O)C(C)O1 (stereo not given)
active: dose: 40.0 mg/kg/injection, schedule: Q01DX001 (ip), vehicle: water 158 % of control | dose: 80.0 mg/kg/injection, schedule: Q01DX001 (ip), vehicle: water 191 % of control
inactive: dose: 10.0 mg/kg/injection, schedule: Q01DX001 (ip), vehicle: water 117 % of control | dose: 20.0 mg/kg/injection, schedule: Q01DX001 (ip), vehicle: water 123 % of control

CN1CCC=C(CN(c2ccccc2)c2ccccc2)C1
inactive: [11] 92 % of control | [12] 89 % of control | [4] 92 % of control
